In the supplement of paper PMC11003180:

How the values were obtained:
Assay in all cases: drug sensitivity score (DSS) from 5-dose viability curve (DSS (area-based score, 0 = no response)); higher = more sensitive (stronger viability inhibition); extreme values may be limits of the assay
[1] = tested on: MDCK wild-type - doxycycline; details: doxycycline: none; 72 h
In short: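 Viability of parental MDCK cells cultured without doxycycline was measured by CellTiter-Glo luminescence and scaled per plate between vehicle and positive controls. The cells had been exposed for 72 h to an oncology library of 528 drugs at five doses (1-10,000 nM). Drug sensitivity scores were calculated from dose-response curve fits in the Breeze pipeline.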

[2] = tested on: MDCK p60AmotL2-inducible + doxycycline (p60AmotL2 expressing); details: doxycycline: 10 ng/mL; 72 h
In short: (§1)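 Two MDCK lines, parental and doxycycline-inducible, received doxycycline at 10 ng/mL in the medium before being plated at 2000 cells/well onto a pre-spotted 384-well oncology library of 528 drugs at five doses (1-10,000 nM). Incubation lasted 72 h at 37 °C. Viability was read by CellTiter-Glo luminescence, scaled per plate between vehicle and positive controls, and converted to drug sensitivity scores through Breeze curve fitting.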

[3] = tested on: MDCK wild-type + doxycycline; details: doxycycline: 10 ng/mL; 72 h
In short: as §1

| Compound | drug sensitivity score [1] | drug sensitivity score [2] | drug sensitivity score [3] |
| --- | --- | --- | --- |
| Cn1cc(C2=C(c3cn(C4CCN(Cc5ccccn5)CC4)c4ccccc34)C(=O)NC2=O)c2ccccc21 [Enzastaurin] | 0 | 0 | 0 |
| COc1ncc(-c2ccc3nccc(-c4ccnnc4)c3c2)cc1NS(=O)(=O)c1ccc(F)cc1F [Omipalisib] | 14.5 | 20.2 | 14.2 |
| CCN(CC)CCN(Cc1ccc(-c2ccc(C(F)(F)F)cc2)cc1)C(=O)Cn1c(SCc2ccc(F)cc2)nc(=O)c2c1CCC2 [Darapladib] | 0 | 0 | 0 |
| COc1cc2/c(=N/c3ccc(Br)cc3F)nc[nH]c2cc1OCC1CCN(C)CC1 [Vandetanib] | 0 | 4.6 | 0 |
| O=C(Nc1cccc(NC(=O)c2cccc(O)c2O)c1)c1cccc(O)c1O [MST-312] | 7.2 | 9.1 | 5.9 |
| Cc1sc2c(c1C)C(c1ccc(Cl)cc1)=N[C@@H](CC(=O)Nc1ccc(O)cc1)c1nnc(C)n1-2 [Birabresib] | 5.8 | 16.6 | 10.7 |
| C=CC[C@@H]1/C=C(\C)C[C@H](C)C[C@H](OC)[C@H]2O[C@@](O)(C(=O)C(=O)N3CCCC[C@H]3C(=O)O[C@H](/C(C)=C/[C@@H]3CC[C@@H](O)[C@H](OC)C3)[C@H](C)[C@@H](O)CC1=O)[C@H](C)C[C@@H]2OC [Tacrolimus] | 0 | 0 | 0 |
| CCCCC(=O)OCC(=O)[C@]1(O)Cc2c(O)c3c(c(O)c2[C@@H](O[C@H]2C[C@H](NC(=O)C(F)(F)F)[C@H](O)[C@H](C)O2)C1)C(=O)c1c(OC)cccc1C3=O [Valrubicin] | 5.7 | 12.9 | 8.8 |
| Cc1cc(Nc2ncnc3ccc(NC4=NC(C)(C)CO4)cc23)ccc1Oc1ccn2ncnc2c1 [Tucatinib] | 0 | 0 | 0 |
| O=C(/C=C\n1cnc(-c2cc(C(F)(F)F)cc(C(F)(F)F)c2)n1)NNc1ccccn1 [Verdinexor] | 9.2 | 10.1 | 10.6 |
| Cn1cc(C[C@@H](N)C(=O)O)c2ccccc21 [1-methyl-D-tryptophan] | 0 | 0 | 0 |
| CN1CCN(c2ccc3nc(-c4c(N)c5c(F)cccc5[nH]c4=O)[nH]c3c2)CC1 [Dovitinib] | 0 | 0 | 2.5 |
| CCS(=O)(=O)N1CCN(c2ccc(Nc3ncc(C(N)=O)c(NC4CC4)n3)cc2)CC1 [Cerdulatinib] | 0.2 | 0.2 | 0 |
| C[C@H]1C[C@@H](n2c(Nc3ccc(OC(F)(F)F)cc3)nc3cc(CCC(=O)O)ccc32)CC(C)(C)C1 | 0 | 0 | 0 |
| Clc1ccc(C(c2ccccc2Cl)C(Cl)Cl)cc1 (stereo not drawn) [Mitotane] | 0 | 0 | 0 |
| CCOCc1nc2c(N)nc3ccccc3c2n1CC(C)(C)O [Resiquimod] | 0 | 0 | 0 |
| CC[C@@H]1C(=O)N(C)c2cnc(Nc3ccc(C(=O)NC4CCN(C)CC4)cc3OC)nc2N1C1CCCC1 [BI 2536] | 19.9 | 15.9 | 15.6 |
| COc1ccc(S(=O)(=O)Nc2cccnc2Nc2ccc(O)cc2)cc1 [ABT-751] | 15.3 | 16 | 16.6 |
| CNC(=O)[C@@H](NC(=O)[C@H](CC(C)C)[C@H](O)C(=O)NO)C(C)(C)C [Marimastat] | 0 | 3.5 | 0.1 |
| COc1cc2c(Oc3ccc(NC(=O)C4(C(=O)Nc5ccc(F)cc5)CC4)cc3F)ccnc2cc1OCCCN1CCOCC1 [Foretinib] | 0 | 2.8 | 1.2 |
| CCc1cncnc1N1CCN(Cc2nc3ccc(C(F)(F)F)cc3[nH]2)CC1 | 0 | 0 | 0 |
| N#Cc1ccc2[nH]c(O)c(-c3ccc(CN4CCOCC4)cn3)c2c1 [AZD-1080] | 0 | 0 | 0 |
| COc1cc(N2CCC(N3CCN(C)CC3)CC2)ccc1Nc1ncnc(Nc2ccccc2S(=O)(=O)C(C)C)n1 [ASP3026] | 6.3 | 9.5 | 6.5 |

| Compound | drug sensitivity score [1] | drug sensitivity score [2] | drug sensitivity score [3] |
| --- | --- | --- | --- |
| Cc1noc2c1-c1ccccc1C(c1ccc(Cl)cc1)=N[C@H]2CC(N)=O [CPI-0610] | 3.1 | 10.9 | 4.8 |
| CC(=O)c1c(C)c2cnc(Nc3ccc(N4CCNCC4)cn3)nc2n(C2CCCC2)c1=O [Palbociclib] | 0.9 | 4.3 | 0.9 |
| C[C@@H]1COCCN1c1cc(C2([S@](C)(=N)=O)CC2)nc(-c2cc[nH]c3nccc2-3)n1 [AZD6738] | 1.3 | 6.7 | 3.4 |
| Cc1ccc(NC(=O)c2ccc(CN3CC[C@H](N(C)C)C3)c(C(F)(F)F)c2)cc1Nc1nccc(-c2cncnc2)n1 [Bafetinib] | 0 | 0 | 0 |
| CCCCOc1nc(N)c2c(n1)N(Cc1cccc(CN3CCCC3)c1)CC(=O)N2 [Vesatolimod] | 0 | 0 | 0 |
| Nc1nccc(-c2c(-c3ccc(F)cc3)ncn2C2CCCCC2)n1 | 0.7 | 2.3 | 0.5 |
| COc1c(C)cnc(Cn2cnc3c(Cl)nc(N)nc32)c1C [BIIB021] | 17.4 | 20.6 | 19.6 |
| NC[C@@](O)(c1ccc(Cl)cc1)c1ccc(-c2cn[nH]c2)cc1 | 0 | 0 | 0 |
| COc1cc([C@@H]2c3cc4c(cc3[C@@H](O[C@@H]3O[C@@H]5CO[C@@H](C)O[C@H]5[C@H](O)[C@H]3O)[C@H]3COC(=O)[C@H]23)OCO4)cc(OC)c1O [Etoposide] | 4.3 | 9.5 | 6.9 |
| Cc1ccc(-c2cc(C(F)(F)F)nn2-c2ccc(S(N)(=O)=O)cc2)cc1 [Celecoxib] | 0 | 0 | 0 |
| C=CCn1c(=O)c2cnc(Nc3ccc(N4CCN(C)CC4)cc3)nc2n1-c1cccc(C(C)(C)O)n1 [AZD1775] | 12.1 | 12.9 | 15.9 |
| Cc1cn(-c2cc(NC(=O)c3ccc(C)c(Nc4nccc(-c5cccnc5)n4)c3)cc(C(F)(F)F)c2)cn1 [Nilotinib] | 0 | 0 | 0 |
| CN(Cc1cnc2nc(N)nc(N)c2n1)c1ccc(C(=O)N[C@@H](CCC(=O)O)C(=O)O)cc1 [Methotrexate] | 27 | 22.5 | 25.8 |
| CCOc1ccccc1-n1c(C(C)N2CCN(C(=O)COc3ccc(Cl)cc3)CC2)nc2ccccc2c1=O (stereo not drawn) [Erastin] | 0 | 0 | 0 |
| CNC(=O)c1ccc(-c2cnc3ncc(Cc4ccc5ncccc5c4)n3n2)cc1F [Capmatinib] | 0 | 0 | 0 |
| NCCNc1ccc(NCCN)c2c1C(=O)c1ccncc1C2=O [Pixantrone] | 0 | 0 | 0 |
| COc1cc(N2CCN(C)CC2)ccc1Nc1nccc(-c2cn(C)c3cnccc23)n1 [AZ191] | 0 | 2.2 | 2.5 |
| CCOC(=O)C1=CCCC[C@H]1S(=O)(=O)Nc1ccc(F)cc1Cl [Resatorvid] | 0 | 0 | 0 |
| CC(=O)[C@]1(O)Cc2c(O)c3c(c(O)c2[C@@H](O[C@H]2C[C@H](N)[C@H](O)[C@H](C)O2)C1)C(=O)c1ccccc1C3=O [Idarubicin] | 16.6 | 19 | 13.9 |
| Cc1cc([C@@H](C)Nc2ccccc2C(=O)O)c2nc(N3CCOCC3)cc(=O)n2c1 [AZD-6482] | 0 | 0 | 0 |
| Cn1cc(-c2cnn3c(N)c(Br)c([C@@H]4CCCNC4)nc23)cn1 [MK-8776] | 0 | 0 | 0 |
| O=C(O)c1ccc(CN2CCC(CN[C@@H]3C[C@H]3c3ccccc3)CC2)cc1 | 0 | 0 | 0 |
| CC(C)C(=O)Nc1ccc([N+](=O)[O-])c(C(F)(F)F)c1 [Flutamide] | 0 | 0 | 0 |
